Test [1] concerns COS cells. In words: Enhancement of EGF-phage transduction by heat shock and/or camptothecin. It counts as cell-based. Here is the method:
The effects of heat shock and another genotoxic treatment, camptothecin were tested. Camptothecin is a type I topoisomerase inhibiter that produces DNA strand breaks. Camptothecin is found to enhance transduction efficiency up to 2 fold at 0.1 μM but was inhibitory at higher concentrations (data not shown). EGF displaying phage (MG4-EGF vector) were incubated with COS cells for 24 hours at which time the cells were either not further treated, subjected to a four hour heat shock (42.5° C.), or treated with 0.1 μM camptothecin for four hours. GFP autofluorescent cells were counted at 72 hours after addition of phage.

In test [2] the test system is COS cells. In words: Transduction of COS cells by peptide display phage (second generation screen). It counts as cell-based. To be noted: overnight incubation, GFP cells at 72 hours, FL5 versus FN5A or FN5B, FIG. 5. Here is the method:
Oligonucleotides encoding the 3 peptides are inserted into the MEGFP vector as fusions to the pIII coat protein. The resulting phage are used to transfect COS cells. Phage are added to cells and incubated overnight at 37° C. in medium with 10% fetal calf serum. The cells are washed to remove unbound phage and returned to the incubator. Transduction is assessed by counting GFP expressing autofluorescent cells at 72 hours after the addition of phage.

Consider two compounds from patent publication US6723512B2, “METHODS USING GENETIC PACKAGE DISPLAY FOR DETECTING AND IDENTIFYING PROTEIN-PROTEIN INTERACTIONS THAT FACILITATE INTERNALIZATION AND TRANSGENE EXPRESSION AND CELLS OR TISSUES COMPETENT FOR THE SAME AND METHODS FOR EVOLVING GENE DELIVERY VECTORS” (priority 1997, dated 2004).

`CC[C@@]1(O)C(=O)OCc2c1cc1n(c2=O)Cc2cc3ccccc3nc2-1` [Camptothecin]: in the test with COS cells [1] (EGF phage 24 hours, then 0.1 μM camptothecin four hours, GFP cells at 72 hours, FIG. 14), the “enhancement of targeted phage mediated transduction by camptothecin” value is listed as around 2 fold. In addition, the “effect of combined heat shock and camptothecin over either treatment alone” value in the test with COS cells [1] (FIG. 14) was “modest synergistic increase”. Besides, the “enhancement of transduction efficiency” value in the test on COS cells [1] (camptothecin 0.1 μM, data not shown) is “up to 2 fold”. Moreover, the “effect on transduction at higher concentrations” value in the test with COS cells [1] (concentrations higher than 0.1 μM, data not shown) was “inhibitory”.
Turning to FVPDPYRKSR [FL5], the “transduction efficiency compared among peptide display phage” value with COS cells [2] is “greater transduction efficiency”.
